Test system: citrated blood
Assay: Measurement of whole blood clotting time (Sonoclot, ACT ONSET value)
Design: species or system human
Description: In a cuvette (NON-ACTIVATED CLOTTING TEST KIT), 18 μL of physiological saline was placed, and 14.8 μL of Calcicol was added thereto, followed by further adding 342 μL of the citrated blood to the resulting mixture. The mixture was then subjected to measurement using a Sonoclot coagulation & Platelet Function Analyzer (IMI Corporation), and the obtained ACT ONSET value was regarded as the whole blood clotting time.

Q: Which results are given for `CC1CNc2c(cccc2S(=O)(=O)N[C@@H](CCCNC(=N)N)C(=O)N2CC[C@@H](C)C[C@@H]2C(=O)O)C1` (mixture of isomers) [argatroban, (2R,4R)-4-methyl-1-((2S)-2-{[(3RS)-3-methyl-1,2,3,4-tetrahydroquinolin-8-yl]sulfonyl}amino-5-guanidinopentanoyl)piperidine-2-carboxylic acid]?
A: whole blood clotting time (2 μM argatroban solution instead of physiological saline): 531 s; whole blood clotting time (10 μM argatroban solution instead of physiological saline): 746 s; whole blood clotting time (20 μM argatroban solution instead of physiological saline): 849 s
